{
  "source": "the NIST ThermoML archive (doi:10.1021/je400255c)",
  "key": {"[1]": {"test": "Molar enthalpy of transition or fusion", "conditions": "DSC"}, "[2]": {"conditions": "DTA"}},
  "note": "Numbers after ± are expanded uncertainties.",
  "data": [
    {"smiles": "O=C[O-].[K+]", "note": "[potassium formate]", "values": [
      {"measurement": "Molar enthalpy of transition or fusion", "setting": "[1]; Crystal 1", "result": "2.76 ± 0.0478", "unit": "kcal/mol"},
      {"measurement": "Molar enthalpy of transition or fusion", "setting": "[1]; Crystal 2", "result": "0.153 ± 0.00239", "unit": "kcal/mol"},
      {"measurement": "Normal melting temperature", "setting": "[2]; Crystal 1", "result": "168.70 ± 1.5", "unit": "°C"},
      {"measurement": "Triple point temperature", "setting": "[2]; Crystal 2", "result": "412.65 ± 1", "unit": "K"}
    ]}
  ]
}
